Assay results: patent US11547681B2, “N-acylethanolamide derivatives and uses thereof” (ELIEM THERAPEUTICS, INC., priority 2016, dated 2023)
Blank lines part the entries; values can stand above or below the compound they belong to.

Key:
[1] = Plasma stability (37° C., pH 7.4), human; type: in vitro ADME; details: for half-life at 1 μM: both sexes, human, plasma, read-out: Half-life; for % Remaining of Initial (n = 1): Human plasma; for % Remaining of Initial: n = 1
Description: (§1) Studies were carried out in mixed-gender human plasma (Lot #GLP530-5), male Sprague-Dawley rat (Lot #RAT297944, RAT313140), male CD-1 mouse (Lot #MSE237700), and male Beagle dog (Lot #BGL87670, BGL82614), collected on sodium heparin. Plasma was adjusted to pH 7.4 prior to initiating the experiments. DMSO stocks were first prepared for the test articles. Aliquots of the DMSO solutions were dosed into 700 μL of plasma, which had been pre-warmed to 37° C., at a final test article concentration of 1 μM. […] Samples were stored at 4° C. until the end of the experiment. After the final time point was sampled, the plate was mixed and then centrifuged at 3,000 rpm for 10 minutes. Calibration standards were prepared in matched matrix. […] Analytical conditions are outlined in Appendix 8-1.
as §1, with “#AS1650-2),” for “#GLP530-5),”, “#RAT297944),” for “#RAT297944, RAT313140),”, “CD-I” for “CD-1”, “#BGL91384),” for “#BGL87670, BGL82614),”, “10-1.” for “8-1.”
(§2) Studies were carried out in mixed-gender human plasma (Lot #AS1650-2), male Sprague-Dawley rat (Lot #RAT297944), male CD-1 mouse (Lot #MSE237700), and male Beagle dog (Lot #BGL91384), collected on sodium heparin. Plasma was adjusted to pH 7.4 prior to initiating the experiments. DMSO stocks were first prepared for test articles. […] Samples were stored at 4° C. until the end of experiment. After the final time point was sampled, the plate was mixed and then centrifuged at 3,000 rpm for 10 minutes. Calibration standards were prepared in matched matrix. […] Analytical conditions are outlined in Appendix 13-1.
(§3) Studies were carried out in mixed-gender human plasma (Lot #AS 1650-2), male Sprague-Dawley rat (Lot #RAT320835), male CD-1 mouse (Lot #MSE260693), and 6 male Beagle dog (Lot #BGL91384), on sodium heparin. Plasma was adjusted to pH 7.4 prior to initiating the experiments. DMSO stocks were first prepared for the test articles. Aliquots of the DMSO solutions were dosed into 700 μL of plasma, which had been pre-warmed to 37° C., at a final test article concentration of 1 μM. […] Samples were stored at 4° C. until the end of the experiment. After the final time point was sampled, the plate was mixed and then centrifuged at 3,000 rpm for 10 minutes. Calibration standards were prepared in matched matrix. […] Analytical conditions are outlined in Appendix 17-1.

[2] = Plasma stability (37° C., pH 7.4), mouse; type: in vitro ADME, CD-1 mouse; details: for half-life at 1 μM: male, CD-1, mouse, plasma; for % Remaining of Initial (n = 1): Mouse plasma; for % Remaining of Initial: n = 1
Description: as §1
as §1, with “#AS1650-2),” for “#GLP530-5),”, “#RAT297944),” for “#RAT297944, RAT313140),”, “CD-I” for “CD-1”, “#BGL91384),” for “#BGL87670, BGL82614),”, “10-1.” for “8-1.”
as §2, §3

[3] = Plasma stability (37° C., pH 7.4), dog; type: in vitro ADME, Beagle dog; details: for half-life at 1 μM: male, Beagle, dog, plasma; for % Remaining of Initial (n = 1): Dog plasma; for % Remaining of Initial: n = 1
Description: as §1
as §1, with “#AS1650-2),” for “#GLP530-5),”, “#RAT297944),” for “#RAT297944, RAT313140),”, “CD-I” for “CD-1”, “#BGL91384),” for “#BGL87670, BGL82614),”, “10-1.” for “8-1.”
as §2, §3

half-life at 1 μM ([1]; pH 7.4, human plasma, test article 1 μM, 37° C., pH 7.4): 34 min | % Remaining of Initial (n = 1), 0 min ([1]; human plasma, test article 1 μM, 37° C., pH 7.4, 0 min): 100% | % Remaining of Initial (n = 1), 15 min ([1]; human plasma, test article 1 μM, 37° C., pH 7.4, 15 min): 67% | % Remaining of Initial (n = 1), 30 min ([1]; human plasma, test article 1 μM, 37° C., pH 7.4, 30 min): 47% | % Remaining of Initial (n = 1), 60 min ([1]; human plasma, test article 1 μM, 37° C., pH 7.4, 60 min): 34% | % Remaining of Initial (n = 1), 120 min ([1]; human plasma, test article 1 μM, 37° C., pH 7.4, 120 min): 10% | half-life at 1 μM ([2]; pH 7.4, mouse plasma, test article 1 μM, 37° C., pH 7.4, read-out: Half-life): 3 min | % Remaining of Initial (n = 1), 0 min ([2]; mouse plasma, test article 1 μM, 37° C., pH 7.4, 0 min): 100% | % Remaining of Initial (n = 1), 15 min ([2]; mouse plasma, test article 1 μM, 37° C., pH 7.4, 15 min): 2.9% | % Remaining of Initial (n = 1), 30 min ([2]; mouse plasma, test article 1 μM, 37° C., pH 7.4, 30 min): 2.1% | % Remaining of Initial (n = 1), 60 min ([2]; mouse plasma, test article 1 μM, 37° C., pH 7.4, 60 min): 1.9% | % Remaining of Initial (n = 1), 120 min ([2]; mouse plasma, test article 1 μM, 37° C., pH 7.4, 120 min): <1.0% | % Remaining of Initial (n = 1), 0 min ([3]; dog plasma, test article 1 μM, 37° C., pH 7.4, 0 min): 100% | % Remaining of Initial (n = 1), 15 min ([3]; dog plasma, test article 1 μM, 37° C., pH 7.4, 15 min): 61% | % Remaining of Initial (n = 1), 30 min ([3]; dog plasma, test article 1 μM, 37° C., pH 7.4, 30 min): 40% | % Remaining of Initial (n = 1), 60 min ([3]; dog plasma, test article 1 μM, 37° C., pH 7.4, 60 min): 18% | % Remaining of Initial (n = 1), 120 min ([3]; dog plasma, test article 1 μM, 37° C., pH 7.4, 120 min): 5.4% | half-life at 1 μM ([3]; pH 7.4, dog plasma, test article 1 μM, 37° C., pH 7.4): 23 min
Compound: CCCCCCCCCCCCCCCC(=O)NCCOC(=O)CCC(=O)OCC(COC(=O)CCC)OC(=O)CCC (stereo not shown) [Compound I-11]

% Remaining of Initial (n = 1) ([1]; 0 min, 1 μM): 100% | % Remaining of Initial (n = 1) ([1]; 15 min, 1 μM): 104% | % Remaining of Initial (n = 1) ([1]; 30 min, 1 μM): 115% | % Remaining of Initial (n = 1) ([1]; 60 min, 1 μM): 95% | % Remaining of Initial (n = 1) ([1]; 120 min, 1 μM): 40% | half-life at 1 μM ([1]; pH 7.4, Human plasma, 1 μM): 120 min | % Remaining of Initial (n = 1) ([2]; 0 min, 1 μM): 100% | % Remaining of Initial (n = 1) ([2]; 15 min, 1 μM): 82% | % Remaining of Initial (n = 1) ([2]; 30 min, 1 μM): 71% | % Remaining of Initial (n = 1) ([2]; 60 min, 1 μM): 49% | % Remaining of Initial (n = 1) ([2]; 120 min, 1 μM): 35% | half-life at 1 μM ([2]; pH 7.4, Mouse plasma, 1 μM, read-out: Half-life): 70 min | % Remaining of Initial (n = 1) ([3]; 0 min, 1 μM): 100% | % Remaining of Initial (n = 1) ([3]; 15 min, 1 μM): 90% | % Remaining of Initial (n = 1) ([3]; 30 min, 1 μM): 72% | % Remaining of Initial (n = 1) ([3]; 60 min, 1 μM): 54% | % Remaining of Initial (n = 1) ([3]; 120 min, 1 μM): 23% | half-life at 1 μM ([3]; pH 7.4, Dog plasma, 1 μM): 61 min
Compound: CCCCC/C=C\C/C=C\CCCCCCCC(=O)OCC(COC(=O)CCC(=O)OCCNC(=O)CCCCCCCCCCCCCCC)OC(=O)CCCCCCC/C=C\C/C=C\CCCCC (stereo not shown) [Compound I-13]

half-life at 1 μM ([1]; pH 7.4, human plasma): 31 min | % Remaining of Initial ([1]; human plasma, 0 min, 1 μM): 100% | % Remaining of Initial ([1]; human plasma, 15 min, 1 μM): 78% | % Remaining of Initial ([1]; human plasma, 30 min, 1 μM): 51% | % Remaining of Initial ([1]; human plasma, 60 min, 1 μM): 24% | % Remaining of Initial ([1]; human plasma, 120 min, 1 μM): 5.8% | half-life at 1 μM ([2]; pH 7.4, mouse plasma, read-out: Half-life): < 15 min | half-life at 1 μM ([2]; pH 7.4, mouse plasma, read-out: Half-life, calculated value in parentheses): 4.7 min | % Remaining of Initial ([2]; mouse plasma, 0 min, 1 μM): 100% | % Remaining of Initial ([2]; mouse plasma, 15 min, 1 μM): 10% | % Remaining of Initial ([2]; mouse plasma, 30 min, 1 μM): 4.0% | % Remaining of Initial ([2]; mouse plasma, 60 min, 1 μM): 1.1% | % Remaining of Initial ([2]; mouse plasma, 120 min, 1 μM): <1.0% | % Remaining of Initial ([3]; dog plasma, 0 min, 1 μM): 100% | % Remaining of Initial ([3]; dog plasma, 15 min, 1 μM): 91% | % Remaining of Initial ([3]; dog plasma, 30 min, 1 μM): 65% | % Remaining of Initial ([3]; dog plasma, 60 min, 1 μM): 39% | % Remaining of Initial ([3]; dog plasma, 120 min, 1 μM): 13% | half-life at 1 μM ([3]; pH 7.4, dog plasma): 44 min
Compound: CCCCCCCCCCCCCCCC(=O)NCCOC(=O)CCC(=O)OC(COC(=O)CCC)COC(=O)CCC [Compound I-16]
